# Measured values from ChEMBL document CHEMBL5465560, “Selectivity Literature for EUbOPEN Chemogenomic Library” (2024).
# Experiments:
# [1] = tested on: Tyrosine-protein kinase ABL1 (Homo sapiens), P00519 [T315I]; details: at 10 µM
# [2] = target: T1, Serine/threonine-protein kinase Nek2 (Homo sapiens) (UniProt P51955); experiment: Selectivity interaction (KinomeScan (DiscoverX)) EUB0000092b NEK2; details: at 10 µM
# T1 sequence (whole entry): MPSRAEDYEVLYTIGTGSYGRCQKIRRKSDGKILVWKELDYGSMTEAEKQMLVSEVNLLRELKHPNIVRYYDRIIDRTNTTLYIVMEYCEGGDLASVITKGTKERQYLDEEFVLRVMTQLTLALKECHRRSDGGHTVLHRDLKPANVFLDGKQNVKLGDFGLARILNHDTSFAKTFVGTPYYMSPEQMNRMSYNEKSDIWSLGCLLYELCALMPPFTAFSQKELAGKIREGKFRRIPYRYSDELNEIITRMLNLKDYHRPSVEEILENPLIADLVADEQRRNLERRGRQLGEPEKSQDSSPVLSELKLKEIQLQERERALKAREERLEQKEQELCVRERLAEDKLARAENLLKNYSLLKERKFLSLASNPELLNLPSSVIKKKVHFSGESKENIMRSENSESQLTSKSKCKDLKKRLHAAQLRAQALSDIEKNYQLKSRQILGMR
# Aurora kinase B = Aurora kinase B (Homo sapiens, UniProt Q96GD4); experiment: Selectivity interaction (KinomeScan (DiscoverX)) EUB0001550a AURKB; details: at 1 µM
# Chain of Aurora kinase B (Q96GD4 whole entry): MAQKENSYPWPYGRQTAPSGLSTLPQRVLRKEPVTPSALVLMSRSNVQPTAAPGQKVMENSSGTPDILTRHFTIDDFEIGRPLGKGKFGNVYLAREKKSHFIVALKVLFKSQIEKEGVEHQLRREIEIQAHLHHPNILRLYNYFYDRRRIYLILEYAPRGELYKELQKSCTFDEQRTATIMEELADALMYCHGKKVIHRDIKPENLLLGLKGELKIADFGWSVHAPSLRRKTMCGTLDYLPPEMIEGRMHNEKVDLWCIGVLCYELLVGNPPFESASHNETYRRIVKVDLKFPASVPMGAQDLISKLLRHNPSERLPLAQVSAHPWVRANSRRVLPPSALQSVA
# [3] = target: Receptor tyrosine-protein kinase erbB-2 (Homo sapiens, UniProt P04626); experiment: Selectivity interaction (KinomeScan (DiscoverX)) EUB0001079a ERBB2; details: at 1 µM
# Chain of Receptor tyrosine-protein kinase erbB-2 (P04626 whole entry): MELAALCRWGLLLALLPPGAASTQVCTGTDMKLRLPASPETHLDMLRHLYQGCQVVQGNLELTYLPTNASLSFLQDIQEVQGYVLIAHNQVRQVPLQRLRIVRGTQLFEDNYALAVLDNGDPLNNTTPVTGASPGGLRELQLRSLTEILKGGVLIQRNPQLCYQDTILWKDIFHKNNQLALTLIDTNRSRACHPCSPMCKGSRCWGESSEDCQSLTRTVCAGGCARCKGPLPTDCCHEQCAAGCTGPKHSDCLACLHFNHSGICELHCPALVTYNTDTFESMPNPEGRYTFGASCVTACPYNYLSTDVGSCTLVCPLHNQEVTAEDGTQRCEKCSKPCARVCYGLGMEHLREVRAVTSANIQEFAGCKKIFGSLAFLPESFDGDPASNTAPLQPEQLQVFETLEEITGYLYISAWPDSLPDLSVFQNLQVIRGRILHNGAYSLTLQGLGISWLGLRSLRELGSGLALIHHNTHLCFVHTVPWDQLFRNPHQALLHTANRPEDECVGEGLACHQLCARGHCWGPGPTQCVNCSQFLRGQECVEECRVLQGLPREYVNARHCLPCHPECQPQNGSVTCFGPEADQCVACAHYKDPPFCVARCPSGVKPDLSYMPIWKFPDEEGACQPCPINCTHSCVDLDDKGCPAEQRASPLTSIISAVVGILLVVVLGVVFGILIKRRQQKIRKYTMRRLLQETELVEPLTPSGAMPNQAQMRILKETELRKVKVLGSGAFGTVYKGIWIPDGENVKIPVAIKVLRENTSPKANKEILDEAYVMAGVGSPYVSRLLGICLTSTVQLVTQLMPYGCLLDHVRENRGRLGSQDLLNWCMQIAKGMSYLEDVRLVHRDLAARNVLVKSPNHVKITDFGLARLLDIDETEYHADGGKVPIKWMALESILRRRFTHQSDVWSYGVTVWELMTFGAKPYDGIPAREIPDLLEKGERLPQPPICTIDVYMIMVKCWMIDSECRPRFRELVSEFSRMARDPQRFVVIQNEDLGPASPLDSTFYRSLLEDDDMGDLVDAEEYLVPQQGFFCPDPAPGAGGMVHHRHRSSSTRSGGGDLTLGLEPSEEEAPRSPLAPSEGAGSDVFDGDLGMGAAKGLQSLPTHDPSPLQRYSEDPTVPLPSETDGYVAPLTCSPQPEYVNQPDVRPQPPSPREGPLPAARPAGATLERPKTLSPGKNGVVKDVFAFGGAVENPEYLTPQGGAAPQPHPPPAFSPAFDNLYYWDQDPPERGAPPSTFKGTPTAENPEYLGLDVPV
# [4] = target: Ribosomal protein S6 kinase alpha-1 (Homo sapiens, UniProt Q15418); experiment: Selectivity interaction (Kinase panel (Z-LYTE Assay)) EUB0001632a RPS6KA1; details: at 10 µM
# Chain of Ribosomal protein S6 kinase alpha-1 (Q15418 whole entry): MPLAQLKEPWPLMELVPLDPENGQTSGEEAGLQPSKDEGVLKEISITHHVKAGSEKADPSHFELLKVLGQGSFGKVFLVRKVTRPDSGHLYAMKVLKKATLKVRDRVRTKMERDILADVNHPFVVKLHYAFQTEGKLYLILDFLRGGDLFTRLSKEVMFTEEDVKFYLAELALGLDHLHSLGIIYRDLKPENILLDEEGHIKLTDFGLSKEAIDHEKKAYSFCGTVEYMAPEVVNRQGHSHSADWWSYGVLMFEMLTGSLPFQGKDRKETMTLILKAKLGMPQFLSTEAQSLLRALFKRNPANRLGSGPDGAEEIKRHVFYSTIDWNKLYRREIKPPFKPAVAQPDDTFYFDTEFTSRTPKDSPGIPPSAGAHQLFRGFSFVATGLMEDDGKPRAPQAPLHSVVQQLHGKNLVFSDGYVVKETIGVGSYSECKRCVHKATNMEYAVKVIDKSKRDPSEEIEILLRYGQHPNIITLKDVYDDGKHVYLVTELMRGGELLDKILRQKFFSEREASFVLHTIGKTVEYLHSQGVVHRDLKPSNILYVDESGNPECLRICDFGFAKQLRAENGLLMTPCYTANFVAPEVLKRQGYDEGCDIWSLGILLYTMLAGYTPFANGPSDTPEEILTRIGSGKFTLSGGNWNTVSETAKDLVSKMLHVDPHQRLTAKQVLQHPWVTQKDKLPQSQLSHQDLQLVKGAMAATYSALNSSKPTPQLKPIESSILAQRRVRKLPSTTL
# [5] = target: Death-associated protein kinase 1 (Homo sapiens, UniProt P53355); experiment: Selectivity interaction (Adapta Assay) EUB0001632a DAPK1; details: at 10 µM
# [6] = target: Cyclin-dependent kinase 4/cyclin D1 (Homo sapiens, UniProt P11802); experiment: Selectivity interaction (Competition-binding assay (DiscoverX)) EUB0001632a CDK4; format: protein-complex assay
# Chain of Cyclin-dependent kinase 4/cyclin D1 (P11802 whole entry): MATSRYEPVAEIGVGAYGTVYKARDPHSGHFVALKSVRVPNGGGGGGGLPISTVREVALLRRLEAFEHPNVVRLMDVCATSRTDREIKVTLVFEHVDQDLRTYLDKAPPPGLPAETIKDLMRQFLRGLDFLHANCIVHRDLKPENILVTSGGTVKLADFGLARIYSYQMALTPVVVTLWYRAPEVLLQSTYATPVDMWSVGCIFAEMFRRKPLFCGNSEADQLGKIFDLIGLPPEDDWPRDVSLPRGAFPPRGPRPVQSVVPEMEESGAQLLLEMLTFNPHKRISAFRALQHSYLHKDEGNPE
# Chain of Cyclin-dependent kinase 4/cyclin D1 (P24385 whole entry, further chain): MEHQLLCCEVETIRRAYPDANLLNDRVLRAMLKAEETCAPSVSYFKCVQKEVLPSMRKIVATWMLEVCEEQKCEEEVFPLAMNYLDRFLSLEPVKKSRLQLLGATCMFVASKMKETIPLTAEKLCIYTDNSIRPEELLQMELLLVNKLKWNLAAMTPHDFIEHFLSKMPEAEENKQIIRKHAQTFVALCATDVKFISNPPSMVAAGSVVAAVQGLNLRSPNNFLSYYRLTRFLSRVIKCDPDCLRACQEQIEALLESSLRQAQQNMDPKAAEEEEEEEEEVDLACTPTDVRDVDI
# [7] = target: T2, MAP/microtubule affinity-regulating kinase 4 (Homo sapiens) (UniProt Q96L34); experiment: Selectivity interaction (ActivX KiNativ screen (kinase selectivity in THP-1 cell lysates)) EUB0000639a MARK4; format: subcellular; details: lysate
# T2 sequence (whole entry): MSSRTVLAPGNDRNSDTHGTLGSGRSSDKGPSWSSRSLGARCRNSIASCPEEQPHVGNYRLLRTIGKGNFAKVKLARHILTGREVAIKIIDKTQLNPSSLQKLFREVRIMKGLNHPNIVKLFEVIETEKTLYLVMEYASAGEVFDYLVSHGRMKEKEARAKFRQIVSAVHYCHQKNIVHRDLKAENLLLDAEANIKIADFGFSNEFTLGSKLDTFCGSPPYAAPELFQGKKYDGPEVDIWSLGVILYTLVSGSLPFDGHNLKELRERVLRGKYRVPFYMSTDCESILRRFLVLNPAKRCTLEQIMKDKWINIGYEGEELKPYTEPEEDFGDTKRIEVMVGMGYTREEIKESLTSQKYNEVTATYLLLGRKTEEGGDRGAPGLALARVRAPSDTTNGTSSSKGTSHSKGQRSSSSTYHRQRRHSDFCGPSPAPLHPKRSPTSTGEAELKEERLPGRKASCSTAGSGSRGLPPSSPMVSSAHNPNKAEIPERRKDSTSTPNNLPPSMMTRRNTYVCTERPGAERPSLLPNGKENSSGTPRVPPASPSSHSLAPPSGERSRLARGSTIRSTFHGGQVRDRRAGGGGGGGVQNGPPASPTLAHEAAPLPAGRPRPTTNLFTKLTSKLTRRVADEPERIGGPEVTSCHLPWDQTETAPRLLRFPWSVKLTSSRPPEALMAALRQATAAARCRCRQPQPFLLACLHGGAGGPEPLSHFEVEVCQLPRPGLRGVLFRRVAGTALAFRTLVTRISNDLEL
# [8] = target: Mitogen-activated protein kinase 11 (Homo sapiens) (UniProt Q15759); experiment: Selectivity interaction (KinomeScan (DiscoverX)) EUB0001049a MAPK11; details: at 1 µM
# Chain of Mitogen-activated protein kinase 11 (Homo sapiens) (Q15759 whole entry): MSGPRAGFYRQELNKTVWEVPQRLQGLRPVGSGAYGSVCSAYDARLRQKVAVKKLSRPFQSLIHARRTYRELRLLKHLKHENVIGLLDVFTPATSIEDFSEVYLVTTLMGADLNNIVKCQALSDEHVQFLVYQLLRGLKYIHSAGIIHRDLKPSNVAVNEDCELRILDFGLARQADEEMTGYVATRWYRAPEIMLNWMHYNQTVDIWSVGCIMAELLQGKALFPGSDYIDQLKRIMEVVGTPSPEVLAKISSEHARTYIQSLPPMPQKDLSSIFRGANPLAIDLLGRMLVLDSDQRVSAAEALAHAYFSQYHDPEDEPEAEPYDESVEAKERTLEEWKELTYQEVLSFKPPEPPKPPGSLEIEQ
# [9] = tested on: Hepatocyte growth factor receptor (Homo sapiens), P08581 [M1250T]; experiment: (§1) Selectivity interaction (KinomeScan (DiscoverX)) EUB0000695a MET; details: at 100 nM
# [10] = tested on: Hepatocyte growth factor receptor (Homo sapiens), P08581 [Y1235D]; experiment: as §1; details: at 100 nM
# [11] = target: Hepatocyte growth factor receptor (Homo sapiens, UniProt P08581); experiment: as §1; details: at 100 nM
# [12] = target: Bone morphogenetic protein receptor type-1A (Homo sapiens, UniProt P36894); experiment: Selectivity interaction (KinomeScan (DiscoverX)) EUB0000045b BMPR1A
# Chain of Bone morphogenetic protein receptor type-1A (P36894 whole entry): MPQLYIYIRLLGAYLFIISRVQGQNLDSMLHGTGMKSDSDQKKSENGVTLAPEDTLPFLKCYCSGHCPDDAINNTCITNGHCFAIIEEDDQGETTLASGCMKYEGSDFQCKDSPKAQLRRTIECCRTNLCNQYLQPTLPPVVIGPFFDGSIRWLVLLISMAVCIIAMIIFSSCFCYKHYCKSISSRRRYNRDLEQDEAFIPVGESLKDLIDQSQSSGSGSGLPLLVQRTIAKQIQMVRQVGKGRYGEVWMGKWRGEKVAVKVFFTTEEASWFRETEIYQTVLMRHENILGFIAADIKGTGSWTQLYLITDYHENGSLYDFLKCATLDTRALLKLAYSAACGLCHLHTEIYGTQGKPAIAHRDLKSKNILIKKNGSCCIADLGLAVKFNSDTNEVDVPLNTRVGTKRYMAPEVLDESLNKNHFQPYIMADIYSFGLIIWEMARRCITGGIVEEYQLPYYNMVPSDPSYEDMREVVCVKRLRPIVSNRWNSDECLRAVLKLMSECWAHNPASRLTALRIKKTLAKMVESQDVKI
# [13] = target: Serine/threonine-protein kinase/endoribonuclease IRE1 (Homo sapiens) (UniProt O75460); experiment: Selectivity interaction (Ambit KINOMEscan and KiNATiv profiling in Jurkat cells) EUB0000090b ERN1; format: cell-based; details: at 1 µM
# Chain of Serine/threonine-protein kinase/endoribonuclease IRE1 (Homo sapiens) (O75460 19-977 limits assumed): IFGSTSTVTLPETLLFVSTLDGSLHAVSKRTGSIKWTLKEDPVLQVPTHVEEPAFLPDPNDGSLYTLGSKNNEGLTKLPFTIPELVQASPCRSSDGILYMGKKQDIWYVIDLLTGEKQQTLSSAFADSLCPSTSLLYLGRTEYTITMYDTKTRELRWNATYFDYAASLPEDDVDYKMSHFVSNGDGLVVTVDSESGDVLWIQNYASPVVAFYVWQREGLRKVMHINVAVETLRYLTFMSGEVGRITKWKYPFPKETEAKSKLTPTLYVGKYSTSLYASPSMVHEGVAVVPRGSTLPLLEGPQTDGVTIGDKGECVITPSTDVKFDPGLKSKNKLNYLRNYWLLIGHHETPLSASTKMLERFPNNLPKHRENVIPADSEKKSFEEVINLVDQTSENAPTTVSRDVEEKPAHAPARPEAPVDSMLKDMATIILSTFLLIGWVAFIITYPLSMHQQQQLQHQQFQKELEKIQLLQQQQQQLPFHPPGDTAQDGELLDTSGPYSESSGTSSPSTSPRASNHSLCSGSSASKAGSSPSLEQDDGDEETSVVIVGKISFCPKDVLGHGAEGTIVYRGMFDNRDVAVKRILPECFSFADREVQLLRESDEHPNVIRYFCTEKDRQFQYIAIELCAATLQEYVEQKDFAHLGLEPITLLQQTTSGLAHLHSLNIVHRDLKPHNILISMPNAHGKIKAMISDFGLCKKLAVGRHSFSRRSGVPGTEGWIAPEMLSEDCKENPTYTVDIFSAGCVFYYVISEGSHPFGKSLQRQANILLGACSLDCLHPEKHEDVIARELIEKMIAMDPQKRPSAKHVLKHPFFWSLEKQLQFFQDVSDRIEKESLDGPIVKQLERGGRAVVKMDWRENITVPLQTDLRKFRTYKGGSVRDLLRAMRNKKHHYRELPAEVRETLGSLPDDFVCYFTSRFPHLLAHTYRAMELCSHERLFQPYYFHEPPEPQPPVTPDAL
smiles,measurement,setting,value
CCN(CC)CCCCNc1ncc2cc(-c3cc(OC)cc(OC)c3)c(NC(=O)NC(C)(C)C)nc2n1,% of control,[1],100%
CCC(=O)N1CCN(c2ccc(-n3c(=O)ccc4cnc5ccc(-c6cnc7ccccc7c6)cc5c43)cc2C(F)(F)F)CC1,% of control,[2],90%
CN(C)CC#Cc1ccc2[nH]c3c(c2c1)-c1nc(N)ncc1CCC3,% of control,Aurora kinase B,23%
Nc1cnc(N2CCc3cc(S(=O)(=O)Nc4c(F)cc(Cl)cc4F)cc(N4CCCC4=O)c32)nc1 [TP-020n],% of control,[3],100%
Cn1cc(-n2cnc3c(NCc4nc5cc(Cl)c(Cl)cc5[nH]4)nc(N4CCOCC4)nc32)cn1,% of control,[4],-6.37%
same,% of inhibition,[5],34%
same,Kd,[6],> 10 µM
CC[C@@H]1[C@H](F)C(=O)N[C@@H]1COc1nccc2cc(C(N)=O)c(OC)cc12 [ZIMLOVISERTIB],% of inhibition,[7]; at 0.01 µM,10.4%
same,% of inhibition,[7]; at 0.04 µM,9.1%
same,% of inhibition,[7]; at 0.2 µM,19.8%
same,% of inhibition,[7]; at 1 µM,21.6%
same,% of inhibition,[7]; at 5 µM,36.9%
COc1cc(Nc2nc(C)cc(-c3cnn4nc(OC)ccc34)n2)cc(C(F)(F)F)c1,% of control,[8],100%
Cc1cc(F)c(C(=O)Nc2cccc(-c3nncn3C(C)C)n2)cc1-n1cnc(C2CC2)c1,% of control,[9],100%
same,% of control,[10],100%
same,% of control,[11],97%
C=CC(=O)Nc1cc(-n2c(=O)ccc3cnc4ccc(-c5ccc(NS(C)(=O)=O)cc5)cc4c32)ccc1C,% of control,[12]; at 1 µM,84%
same,% of control,[12]; at 10 µM,100%
CN(C)C/C=C/C(=O)Nc1ccc(C(=O)N2CCCC(Nc3ncc(Cl)c(-c4c[nH]c5ccccc45)n3)C2)cc1 (centres undefined),% of control,[13],92%
